Measurements from patent US12715850B2, “Low toxicity NMP substitutes and uses thereof” (Advancion Corporation, priority 2020, dated 2026).

Assays:
[1] = Solubility of the product in water and mineral oil; format: physicochemical
Experimental: The resulting nitro amidef was added to a 2 L Parr reactor along with 300 g methanol and 30 g of damp Raney® nickel. The reactor was purged with hydrogen. The reagents were stirred and reacted at 65° C. and 750 psig hydrogen. In a separate vessel, a blend of 400 g (2.13 mol) of nitroamide (prepared in previous example) and 431 g (5.31 mol) of formaldehyde (37% aqueous, Fisher Scientific) was prepared. The nitroamide/formaldehyde mixture was added to the reactor under stirring while maintaining 65° C. Followed by flushing with 50 g (0.62 mol) of 37% aqueous formaldehyde. The reactor contents were held at 65° C. for 2 hours followed by cooling to 25° C. The reactor was vented and the catalyst filtered off the product. After rinsing the catalyst with methanol (2×20 mL), the filtrate was concentrate under vacuum. The product was isolated and purified using vacuum distillation to provide a pale yellow liquid recovered in 75% yield from DMAA having purity >99% by GC-FID. The boiling point was determined to be 170° C. at 40 mmHg, 145° C. at 15 mmHg, and 137° C. at 10 mmHg. ^1H NMR (400 MHz, D2O): d=2.95 (s, 3H), 2.88 (s, 3H), 2.24 (m, 2H), 2.05 (s, 6H), 1.54 (m, 2H), 0.91 (s, 6H).

animals [2] = conditions: long-term oral exposures in animals; cited from earlier work
animals [3] = conditions: animals ingested NMP repeatedly at lower levels; cited from earlier work
[4] = following inhalation, oral and dermal exposure in humans and animals; cited from earlier work
experimental animals = conditions: high levels over short time by inhalation, dermal exposure, and ingestion; cited from earlier work
[5] = oral reproduction toxicity study; at doses lower than those that caused maternal toxicity; cited from earlier work

Row | solubility in mineral oil ([1]; mineral oil) | solubility in water ([1]; water) | SMILES | effects of long-term oral exposures (animals [2]) | adverse effects (animals [3]) | absorption [4] | toxicity (experimental animals) | developmental toxicity [5]
1 | soluble | soluble | CN(C)C(=O)CCC(C)(C)N(C)C [Example 3, 4-(dimethylamino)-N,N-4-trimethylpentamide] | – | – | – | – | –
2 | – | – | CN1CCCC1=O [NMP, N-methyl-2-pyrrolidone] | increased incidence of large kidneys, kidneys diagnosed with chronic problems, fluid in the pleural cavity and small testes | changes in body weight, liver weight, neurotoxicity, and thymus atrophy | well absorbed | low toxicity | decrease in fetal weight and malformations
